The source of these data is US7601850B2, “Phenyl-thiophene type vitamin D receptor modulators” (Eli Lilly and Company, priority 2002, dated 2009).

The experiment relates to rat osteocalcin promoter. In words: OCN (osteocalcin) promoter assay in RG-15 (ROS 17/2.8) cells. The experiment is classed as cell-based. As for the experimental part: 4. The OCN Promoter test is described in the “Assay” section of the Description, infra.
3. The OCN (Osteocalcin) Promoter Assay
The OCN Promoter Assay is an indicator and marker for osteoporosis. Desired assay results are EC50 less than or equal to 325 nM. Preferred assay results are less than 50 nM.
(3) Materials and Method for The OCN Promoter Assay:
The activation of osteocalcin by VDR ligands was evaluated in a rat osteoblast-like cell line RG-15 (ROS 17/2.8) stably expressing rat osteocalcin promoter fused with luciferase reporter gene. The stable cell lines were established as reported before (Activation of Osteocalcin Transcription involves interaction of protein kinase A- and Protein kinase C-dependent pathways. Boguslawski, G., Hale, L. V., Yu, X.-P., Miles, R. R., Onyia, J. E., Santerre R. F., Chandrasekhar, S. J Biol. Chem. 275, 999-1006, 2000). Confluent RG-15 cells maintained in DMEM/F-12 medium (3:1) containing 5% FBS, 300 µg/ml G418 and at 37° C. under 5% CO2/95% air atmosphere were trypsinized (0.25% trypsin) and plated into white opaque 96-well cell culture plates (25000 cells/well). After 24 hr, cells (in DMEM/F-12 medium+2% FBS) were treated with various concentrations of compounds, dissolved in DMSO. The final DMSO concentration remained at 0.01% (v/v). After 48 hr treatment, the medium was removed, cells were lysed with 50 µl of lysis buffer (From Luciferase reporter assay system, Roche Diagnostics, Indianapolis, Ind.) and assayed for luciferase activity using the Luciferase Reporter Gene Assay kit from Boehringer Mannheim as per manufacturer's specifications.

Where two headings read alike, the source gives them in different places.

As usually defined, the EC50 is the concentration at which the effect is half-maximal.

`CCC(CC)(c1ccc(CCC(O)C(C)(C)C)c(C)c1)c1cc(C)c(C(=O)O)s1` (centres unmarked) [Ex. 175, 5-{1-Ethyl-1-[4-(3-hydroxy-4,4-dimethyl-pentyl)-3-methyl-phenyl]-propyl}-3-methyl-thiophene-2-carboxylic acid]: the concentration for a half-maximal effect (EC50) (Rattus norvegicus) stood at 127 nM.

For the molecule `CCC(CC)(c1ccc(OCC(O)C(C)(C)C)c(C)c1)c1cc(C)c(CN(CC(=O)O)C(C)=O)s1` (centres unmarked) [Ex. 130, 2-[N-acetyl-(5-{1-ethyl-1-[4-(2-hydroxy-3,3-dimethyl-butoxy)-3-methyl-phenyl]-propyl}-3-methyl-thiophen-2-ylmethyl)-amino]-acetic acid], the EC50 (Rattus norvegicus) amounted to 49.7 nM.

In the case of `CCC(CC)(c1ccc(OCS(C)(=O)=O)c(C)c1)c1cc(C)c(CC[C@@H](O)C(C)(C)C)s1` [Ex. 14], the concentration giving a half-maximal response (EC50) (Rattus norvegicus) stood at 46.6 nM.

For the molecule `CCOC(=O)CCNS(=O)(=O)c1sc(C(CC)(CC)c2ccc(OCC(O)C(C)(C)C)c(C)c2)cc1C` (centres unmarked) [Ex. 140], the EC50 (Rattus norvegicus) was found to be 72.5 nM.

For the molecule `CCC(CC)(c1ccc(C(=O)NCC(=O)OC)c(C)c1)c1cc(C)c(CCC(O)C(C)(C)C)s1` (single isomer, unassigned) [Ex. 25A], under “Rattus norvegicus”, the EC50 is 9.9 nM.

As for `CCC(CC)(c1ccc(CCC(=O)C(C)(C)C)c(C)c1)c1cc(C)c(S(=O)(=O)NCC(=O)O)s1` [Ex. 182], for the setting “Rattus norvegicus”, the EC50 is 231 nM.

In the case of `CCC(CC)(c1ccc(OCC(=O)C(C)(C)C)c(C)c1)c1cc(C)c(C(=O)OC)s1` [Ex. 1], the EC50 (Rattus norvegicus) is 140 nM.

Consider `CCC(CC)(c1ccc(OCC(=O)C(C)(C)C)c(C)c1)c1cc(C)c(S(=O)(=O)NC(=O)C2CC2)s1` [Ex. 165, 5-{1-[4-(3,3-Dimethyl-2-oxo-butoxy)-3-methyl-phenyl]-1-ethyl-propyl}-3-methyl-thiophene-2-sulfonic acid cyclopropanecarbonyl-amide], for which the EC50 (Rattus norvegicus) came to 138 nM.

`CCC(CC)(c1ccc(OCC(O)C(C)(C)C)c(C)c1)c1cc(C)c(C(=O)NCCS(C)(=O)=O)s1` (centres unmarked) [Ex. 38, 5-[1-ethyl-1-[4-(2-hydroxy-3,3-dimethyl-butoxy)-3-methylphenyl]propyl]-3-methylthiophene-2-carboxylic acid (2-methylsulfonyl-ethyl) amide]: the EC50 (Rattus norvegicus) was found to be 380 nM.

Take `CCC(CC)(c1ccc(OCC(O)C(C)(C)C)c(C)c1)c1cc(C)c(C(=O)N[C@@H](C(=O)O)C(C)C)s1` (stereo partly drawn) [Ex. 87, D-2-[(5-{1-ethyl-1-[4-(2-hydroxy-3,3-dimethyl-butoxy)-3-methyl-phenyl]-propyl}-3-methyl-thiophene-2-carbonyl)-amino]-3-methyl-butyric acid]: the 50% effective concentration (EC50) was above 1000 nM.

Take `CCc1cc(C(CC)(CC)c2ccc(S(=O)(=O)NCC(=O)OC)s2)ccc1OCC(O)C(C)(C)C` (centres unmarked) [Ex. 154]: the 50% effective concentration (EC50) (Rattus norvegicus) is 20.5 nM.

`CCC(CC)(c1ccc(OCC(=O)C(C)(C)C)c(C)c1)c1cc(C)c(CN(CC(=O)O)C(C)=O)s1` [Ex. 133, 2-[N-Acetyl-(5-{1-[4-(3,3-dimethyl-2-oxo-butoxy)-3-methyl-phenyl]-1-ethyl-propyl}-3-methyl-thiophen-2-yl-methyl)-amino]-acetic acid]: where the note is “Rattus norvegicus”, the EC50 stood at 49.2 nM.

Regarding `CCC(CC)(c1ccc(OCC(O)C(C)(C)C)c(C)c1)c1cc(C)c(S(=O)(=O)Nc2ccccc2C(=O)O)s1` (centres unmarked) [Ex. 149], the EC50 (Rattus norvegicus) is 98.3 nM.

For the molecule `CCC(CC)(c1ccc(OCC(=O)C(C)(C)C)c(C)c1)c1cc(C)c(C(=O)NCCS(C)(=O)=O)s1` [Ex. 41, 5-{1-[4-(3,3-Dimethyl-2-oxo-butyoxy)-3-methyl-phenyl]-1-ethyl-propyl}-3-methyl-thiophene-2-carbolic acid (2-methanesulfonyl-ethyl]-amide], the EC50 (Rattus norvegicus) is 300 nM.

For `CCC(CC)(c1ccc(OCC(=O)C(C)(C)C)c(C)c1)c1cc(C)c(S(=O)(=O)NCC(=O)O)s1` [Ex. 139], the concentration for a half-maximal effect (EC50) (Rattus norvegicus) turned out to be 31 nM.

Consider `CCC(CC)(c1ccc(OCC(O)C(C)(C)C)c(C)c1)c1cc(C)c(C(=O)N2CCC[C@H]2C(=O)OC)s1` (single isomer, unassigned) [Ex. 74, L-1-(5-{1-Ethyl-1-[4-(2-hydroxy-3,3-dimethyl-butoxy)-3-methyl-phenyl]-propyl}-3-methyl-thiophene-2-carbonyl)-pyrrolidine-2-carboxylic acid methyl ester], for which the 50% effective concentration (EC50) turned out to be 479 nM.

On to `CCC(C)[C@H](NC(=O)c1sc(C(CC)(CC)c2ccc(OCC(O)C(C)(C)C)c(C)c2)cc1C)C(=O)OC` (stereo partly drawn) [Ex. 68, L-2-[(5-{1-Ethyl-1-[4-(2-hydroxy-3,3-dimethyl-butoxy)-3-methyl-phenyl]-propyl}-3-methyl-thiophene-2-carbonyl)-amino]-3-methyl-pentanoic acid methyl ester], for which the EC50 (Rattus norvegicus) came out at 56 nM.

Turning to `CCC(CC)(c1ccc(OCC(O)C(C)(C)C)c(C)c1)c1cc(C)c(C(=O)NC(C)(C)C(=O)OC)s1` (single isomer, unassigned) [Ex. 76, 2-[(5-{1-Ethyl-1-[4-(2-hydroxy-3,3-dimethyl-butoxy)-3-methyl-phenyl]-propyl}-3-methyl-thiophene-2-carbonyl)-amino]-2-methyl-propionic acid methyl ester], the EC50 is 57.8 nM.

For the molecule `CCC(CC)(c1ccc(OCC(O)C(C)(C)C)c(C)c1)c1cc(C)c(C(=O)N[C@@H](C)C(=O)OC)s1` (single isomer, unassigned) [Ex. 64, L-2-[(5-{1-Ethyl-1-[4-(2-hydroxy-3,3-dimethyl-butoxy)-3-methyl-phenyl]-propyl}-3-methyl-thiophene-2-carbonyl)-amino]-propionic acid methyl ester], the concentration giving a half-maximal response (EC50) came to 4.1 nM.

`CCC(CC)(c1ccc(OCC(O)C(C)(C)C)c(C)c1)c1cc(C)c(C(=O)Nc2nnn[nH]2)s1` (single isomer, unassigned) [Ex. 37, 3′-[4-(2-hydroxy-3,3-dimethylbutoxy)-3-methylphenyl]-3′-[5-(tetrazol-5-yl-aminocarbonyl)-4-methylthiophen-2-yl]pentane]: the EC50 is 240 nM.

For the molecule `CCC(CC)(c1ccc(OCC(O)C(C)(C)C)c(C)c1)c1cc(C)c(S(=O)(=O)N[C@H](C)C(=O)O)s1` (some centres unmarked) [Ex. 151], the EC50 (Rattus norvegicus) stood at 48.2 nM.

Turning to `CCC(=O)NS(=O)(=O)c1sc(C(CC)(CC)c2ccc(OCC(=O)C(C)(C)C)c(C)c2)cc1C` [Ex. 163, 5-{1-[4-(3,3-dimethyl-2-oxo-butoxy)-3-methyl-phenyl]-1-ethyl-propyl}-3-methyl-thiophene-2-sulfonic acid propionyl-amide], the EC50 (Rattus norvegicus) was 106 nM.

As for `CCC(CC)(c1ccc(OCC(=O)O)c(C)c1)c1cc(C)c(CCC(O)C(C)(C)C)s1` (centres unmarked) [Ex. 32], the EC50 (Rattus norvegicus) turned out to be 9.35 nM.

Turning to `CCC(CC)(c1ccc(OCC(C)(O)C(C)(C)C)c(OC)c1)c1ccc(C(=O)N[C@@H](C)C(=O)O)s1` (stereo partly drawn) [Ex. 115, d-3′-[4-(2-hydroxy-2,3,3-trimethylbutoxy)-3-methoxyphenyl]-3′-[5-(carboxy-1-ethylamino)carbonyl-thiophen-2-yl]pentane], the EC50 (Rattus norvegicus) was 19.9 nM.

Take `CCC(CC)(c1ccc(OCC(O)C(C)(C)C)c(C)c1)c1cc(C)c(C(=O)N[C@@H](C)C(=O)OC)s1` (single isomer, unassigned) [Ex. 54, L-2-[(5-{1-Ethyl-1-[4-(2-hydroxy-3,3-dimethyl-butoxy)-3-methyl-phenyl]-propyl}-3-methyl-thiophene-2-carbonyl)amino]propionic acid methyl ester]: the EC50 is 27.5 nM.

For the molecule `CCC(CC)(c1ccc(OCC(O)C(C)(C)C)c(C)c1)c1cc(C)c(S(=O)(=O)NC(C)(C)C(=O)OC)s1` (centres unmarked) [Ex. 148], under “Rattus norvegicus”, the half-maximal effective concentration (EC50) is 236 nM.

As to `CCC(CC)(c1ccc(OCC(O)C(C)(C)C)c(C)c1)c1cc(C)c(C(=O)N2CCC[C@@H]2C(=O)O)s1` (stereo partly drawn) [Ex. 81, D-1-(5-{1-ethyl-1-[4-(2-hydroxy-3,3-dimethyl-butoxy)-3-methyl-phenyl]-propyl}-3-methyl-thiophene-2-carbonyl)-pyrrolidine-2-carboxylic acid], the EC50 (Rattus norvegicus) is 200 nM.

Take `CCC(CC)(c1ccc(OCC(=O)C(C)(C)C)c(C(C)C)c1)c1ccc(C(=O)OC)s1` [Ex. 91, 3′-[4-(2-oxo-3,3-dimethylbutoxy)-3-(1-methylethyl)phenyl]-3′-[5-methoxycarbonyl-thiophen-2-yl]pentane]: the concentration giving a half-maximal response (EC50) (Rattus norvegicus) worked out at 212 nM.

In the case of `CCC(O)(CC)COc1ccc(C(CC)(CC)c2cc(C)c(C(=O)O)s2)cc1C` [Ex. 51, 5-{1-Ethyl-1-[4-(2-ethyl-2-hydroxy-butoxy)-3-methyl-phenyl]-propyl}-3-methyl-thiophene-2-carboxylic acid], the EC50 (Rattus norvegicus) worked out at 781 nM.

`CCC(CC)(c1ccc(C(=O)NCC(=O)O)c(C)c1)c1cc(C)c(CCC(O)C(C)(C)C)s1` (centres unmarked) [Ex. 26]: the concentration for a half-maximal effect (EC50) (Rattus norvegicus) turned out to be 7.95 nM.

For `CCC(CC)(c1ccc(OCC(O)C(C)(C)C)c(C)c1)c1cc(C)c(C(=O)N2CCC[C@H]2C(=O)O)s1` (single isomer, unassigned) [Ex. 73, L-1-(5-{1-Ethyl-1-[4-(2-hydroxy-3,3-dimethyl-butoxy)-3-methyl-phenyl]-propyl}-3-methyl-thiophene-2-carbonyl)pyrrolidine-2-carboxylic acid], the half-maximal effective concentration (EC50) (Rattus norvegicus) worked out at 266 nM.

On to `CCC(CC)(c1ccc(OCC(O)C(C)(C)C)c(C)c1)c1cc(C)c(C(=O)N[C@@H](C(=O)O)C(C)C)s1` (stereo partly drawn) [Ex. 86, D-2-[(5-{1-Ethyl-1-[4-(2-hydroxy-3,3-dimethyl-butoxy)-3-methyl-phenyl]-propyl}-3-methyl-thiophene-2-carbonyl)-amino]-3-methyl-butyric acid], for which the EC50 was determined as 205 nM.
